From publication PMC10791743, “Selective CK1α degraders exert antiproliferative activity against a broad range of human cancer cell lines” (Nature Communications, 2024)

How the values were obtained:
Experiment in all cases: cells
Parameters in all cases: Oncolines panel cell viability, ATPlite 1Step luminescence, duplicate 9-point dose response, IC50
[1] = system: SNU-C2B; details: Homo sapiens, SNU-C2B; 72 h viability; read-out: SJ3149
Procedure: (§1) Cell viability assays were performed as previously described. In brief, cells were seeded in a 384-well plate at an optimized density. The starting cell number was determined after 24 h incubation by adding ATPlite 1Step (Perkin Elmer, Groningen, the Netherlands) to each well and recording luminescence on an Envision multimode reader (Perkin Elmer, Waltham, MA). After the addition of a duplicate 9-point dilution series of SJ3149, cells were incubated for another 72 h, followed by cell counting using ATPlite 1Step. The dilution series ranged from 3.2 to 31,600 nM or was diluted 100-fold for the most sensitive cell lines to ideally capture the complete dose–response curve. Percentage viability was determined at each compound concentration by relating the observed signal to a vehicle-treated control, that is, medium containing 0.4% (v/v) DMSO. Compound IC50 values were calculated by fitting a 4-parameter logistic curve to the percentage viability values using IDBS XLfit5 (IDBS, Guildford, UK). The IC50 was limited to the maximum tested compound concentration when the IC50 exceeded the maximum tested concentration. […] To evaluate the compound’s effect and potential therapeutic application across a diverse range of human cancers, we profiled SJ3149 in Oncolines® panel consisting of 115 human cancer cell lines, of which 86 were solid tumor and 29 hematologic cell lines, including MOLM-13. Effect on cell viability was monitored using ATPLite™ (Perkin Elmer), which measures intracellular ATP content as an indirect readout of cell number, like CellTiter Glo.

[2] = system: Hs 766T; details: Hs766T; 72 h viability; read-out: SJ3149
Procedure: as §1

[3] = system: NCI-H661; details: Homo sapiens, NCI-H661; 72 h viability; read-out: SJ3149
Procedure: as §1

[4] = system: SJCRH30; details: 72 h viability; read-out: SJ3149
Procedure: as §1

[5] = system: U-87 MG; details: Homo sapiens, U-87 MG; 72 h viability; read-out: SJ3149
Procedure: as §1

[6] = system: SW948; details: Homo sapiens, SW948; 72 h viability; read-out: SJ3149
Procedure: as §1

[7] = system: A-427; details: Homo sapiens, A-427; 72 h viability; read-out: SJ3149
Procedure: as §1

[8] = system: J82; details: Homo sapiens, J82; 72 h viability; read-out: SJ3149
Procedure: as §1

[9] = system: BxPC-3; details: Homo sapiens, BXPC-3; 72 h viability; read-out: SJ3149
Procedure: as §1

[10] = system: A-704; details: Homo sapiens, A704; 72 h viability; read-out: SJ3149
Procedure: as §1

[11] = system: COLO 205; details: Homo sapiens, COLO 205; 72 h viability; read-out: SJ3149
Procedure: as §1

[12] = system: LS411N; details: Homo sapiens, LS-411N; 72 h viability; read-out: SJ3149
Procedure: as §1

[13] = system: NCI-H460; details: Homo sapiens, NCI-H460; 72 h viability; read-out: SJ3149
Procedure: as §1

[14] = system: Daoy; details: Homo sapiens, Daoy; 72 h viability; read-out: SJ3149
Procedure: as §1

[15] = system: SHP-77; details: Homo sapiens, SHP77; 72 h viability; read-out: SJ3149
Procedure: as §1

[16] = system: HT; details: Homo sapiens, HT; 72 h viability; read-out: SJ3149
Procedure: as §1

[17] = system: THP-1; details: Homo sapiens, THP-1; 72 h viability; read-out: SJ3149
Procedure: as §1

[18] = system: OVCAR-3; details: Homo sapiens, OVCAR-3; 72 h viability; read-out: SJ3149
Procedure: as §1

[19] = system: RPMI-7951; details: Homo sapiens, RPMI-7951; 72 h viability; read-out: SJ3149
Procedure: as §1

[20] = system: PF-382; details: Homo sapiens, PF-382; 72 h viability; read-out: SJ3149
Procedure: as §1

Measured: IC50

O=C1CCC(N2Cc3cc(Nc4noc5ccccc45)ccc3C2=O)C(=O)N1 (centres unmarked) [SJ3149]
> 31.6 µM: all assays above
